# Experiments:
# Assay type in all cases: cell-based, human
# [1] = tested on: PXB-cells; assay: Analysis of lipoprotein in culture supernatant (LipoSEARCH gel filtration HPLC) of PXB-cells; settings: for content of Large-VLDL among the VLDL in the culture supernatant (neutral fat (triglyceride)): Large-VLDL alone changed
# Protocol: The following day of seeding, medium A was removed. Instead, 500 μL of medium B (DMSO (+)) or medium C (DMSO (−)) was added. The plate was gently placed in an incubator (37° C., 5% CO2) and the cells were cultured for 5 days. After completion of culture, an image of the cells was taken by a photomicrographic camera. Then, the culture supernatant was recovered and subjected to analysis for lipoprotein in the culture supernatant described below. Lipoproteins contained in the culture supernatants of PXB-cells, HepG2 cells and HuH7 cells were analyzed by using LipoSEARCH (registered trademark) method (Skylight Biotech, Inc.). After completion of the culture mentioned above, the medium used in the culture was removed and 500 μL of medium D for analysis was added. The culture plate was gently placed in an incubator (37° C., 5% CO2) and the cells were cultured for 2 days. Thereafter, the culture supernatant was recovered, lipoproteins contained in the culture supernatant (80 μL) were fractionated into 4 types of subgroups, CM, VLDL, LDL and HDL fractions, by gel filtration HPLC. Cholesterol and neutral fat (triglyceride) contained in individual fractions were quantified by online enzyme reactions. Concentration analysis was carried out in accordance with the computer program specifically developed by Skylight Biotech, Inc. Note that, in the enzymatic reaction, Diacolor Liquid TG-S (manufactured by Toyobo Co., Ltd.) was used. As standard sera for cholesterol and neutral fat (triglyceride) concentration in CM, VLDL, LDL and HDL, the sera manufactured by Kyowa Hakko Kirin Co., Ltd. were used. PXB-cells were diluted with medium A. The diluted cell suspension (500 μL) was gently poured to individual wells of a culture plate. The plate was allowed to stand still for about 20 minutes until the cells were slightly in contact with the bottom surface of the wells and gently placed to an incubator (37° C., 5% CO2) to culture the cells. The following day of seeding, medium A was removed and 500 μL of medium B (DMSO (+)) was added. The plate was gently placed in an incubator (37° C., 5% CO2) and the cells were cultured for 13 days. After completion of culture, the cells were used in the following test. A medium of PXB-cells prepared above was exchanged with medium D containing 0.75 mM oleic acid, and gently placed in an incubator (37° C., 5% CO2). PXB-cells were cultured for two days. PXB-cells were prepared in the same manner as in the method set forth in “Preparation of cells” in the above step (1-1) except that the period of culture in medium B (DMSO (+)) was set at 6 days and subjected to the following test. The mediums for the PXB-cells prepared above were exchanged with mediums D containing 1 nM or 5 nM lomitapide respectively and gently placed in an incubator (37° C., 5% CO2). PXB-cells were cultured for two days. PXB-cells were prepared in the same manner as in the method set forth in “Preparation of cells” in the above step (1-1) and subjected to the following test. The mediums of the PXB-cells prepared above were exchanged with mediums D containing 10 μM, 50 μM or 100 μM fenofibrate and gently placed in an incubator (37° C., 5% CO2). The PXB-cells were cultured for 2 days. After completion of the culture, cholesterol and neutral fat (triglyceride) in the culture supernatant and cells were measured in accordance with the method described in the above section “Analysis of lipoprotein in culture supernatant” and “Analysis of lipoprotein in cells”, respectively.
# [2] = tested on: PXB-cells; assay: Observation of fat droplets in PXB-cells by photomicrograph; settings: 2% DMSO in medium, 5 days culture
# Protocol: The following day of seeding, medium A was removed. Instead, 500 μL of medium B (DMSO (+)) or medium C (DMSO (−)) was added. The plate was gently placed in an incubator (37° C., 5% CO2) and the cells were cultured for 5 days. After completion of culture, an image of the cells was taken by a photomicrographic camera. Then, the culture supernatant was recovered and subjected to analysis for lipoprotein in the culture supernatant described below.
# [3] = tested on: PXB-cells; assay: Analysis of lipoprotein in cells (intracellular triglyceride and cholesterol, Cholestest) of PXB-cells; settings: 2 days, data not shown
# Protocol: Triglyceride in cells was measured by use of Cholestest (registered trademark) TG (Sekisui Medical Co., Ltd.) in accordance with the instruction by the manufacturer. More specifically, the cells were washed with PBS, and then, completely dewatered (stored at -80° C. until measurement). To each well containing the cells, 200 μL of TG enzyme solution (1) was added. A reaction was allowed to proceed while keeping the cells warm at 37° C. for 10 minutes (free glycerol was removed) Then, the cells were torn away by pipetting, transferred to a centrifuge tube and centrifuged at 10,000 rpm×10 minutes. Then, the supernatant (7.5 μL) was transferred to a 96-well microplate. To this, 68 μL of TG enzyme solution (1) was added and the microplate was kept warm at 37° C. for 10 minutes to remove completely free glycerol. Then, 25 μL of TG enzyme solution (2) was added and kept the plate warm at 37° C. for 10 minutes. The resultant reaction product was subjected to measurement of absorbance at 550 nm. The content of triglyceride was calculated based on HDL-[…] as the reference (triglyceride concentration of HDL-[…] was 52.26 mg/dL). Intracellular cholesterol was measured by use of Cholestest (registered trademark) CHO (Sekisui Medical Co., Ltd.) in accordance with the instruction by the manufacturer. […] The resultant reaction product was subjected to measurement of absorbance at 550 nm. The content of cholesterol was calculated based on HDL-[…] as the standard ([…] of HDL-[…] was 152.67 mg/dL). […] After completion of culture, the total cholesterol and total neutral fat (triglyceride) in culture supernatant and in cells were measured in accordance with the methods described in the sections “Analysis of lipoprotein in culture supernatant” and “Analysis of lipoprotein in cells”. […] After completion of the culture, cholesterol and neutral fat (triglyceride) in the culture supernatant and cells were measured in accordance with the method described in the above sections “analysis of lipoprotein in culture supernatant” and “analysis of lipoprotein in cells”, respectively. […]
smiles,measurement,setting,value
"C[S+](C)[O-] [DMSO, dimethyl sulfoxide]","secretion of total neutral fat (triglyceride) in lipoproteins, medium B (DMSO (+)) relative to medium C (DMSO (−))","[1]; 2% DMSO in medium, 5 days culture, culture supernatant",about 9 times
same,"number of fat droplets in PXB-cells, medium B (DMSO (+)) compared to medium C (DMSO (−))",[2],about double
O=C(NC1CCN(CCCCC2(C(=O)NCC(F)(F)F)c3ccccc3-c3ccccc32)CC1)c1ccccc1-c1ccc(C(F)(F)F)cc1 [lomitapide],VLDL content of the culture supernatant (neutral fat (triglyceride)),"[1]; 5 nM lomitapide in medium D, 2 days, PXB-cells pre-cultured 6 days in medium B (DMSO (+)), vs ethanol control",significantly decreases
same,content of Large-VLDL among the VLDL in the culture supernatant (neutral fat (triglyceride)),"[1]; lomitapide in medium D, 2 days",significantly decreased
same,content of neutral fat (triglyceride) in the cells,[3]; lomitapide (1 nM or 5 nM),no change
CCCCCCCC/C=C\CCCCCCCC(=O)O [oleic acid],content of Large-VLDL among the VLDL in the culture supernatant (neutral fat (triglyceride)),"[1]; 0.75 mM oleic acid in medium D, 2 days",significantly increased
same,VLDL content in the culture supernatant (neutral fat (triglyceride)),"[1]; 0.75 mM oleic acid in medium D, 2 days, PXB-cells pre-cultured 13 days in medium B (DMSO (+)), vs medium D control",significantly increased
same,content of cholesterol in the culture supernatant,"[1]; 0.75 mM oleic acid, 2 days, data not shown",change similarly to the content of neutral fat (triglyceride)
same,content of cholesterol in the cells,[3]; 0.75 mM oleic acid,change similarly to the content of neutral fat (triglyceride)
same,content of neutral fat (triglyceride) in the cells,[3]; 0.75 mM oleic acid,significantly increased

# — US20250263667A1, “HUMAN FATTY-LIVER MODEL CELLS FOR USE IN SCREENING METHOD” (PhoenixBio Co., Ltd., priority 2021, published 2025)
